Source: a melting point compilation (Tetko et al.; mined from patent text by program, amines drawn as free bases though some values may be those of a salt)
Residues, ends and D or L forms follow the SMILES beside them. *: point of attachment. Bz = O=C(c1ccccc1)*

Row | melting point [°C] | Compound
1 | 154 to 155 | Cc1ccc(C(=C(C=O)c2nnnn2C)c2ccc(C)cc2F)c(F)c1
2 | 57 to 58 | Cc1c(Cc2cccnc2)oc2ccc(Br)cc12
3 | 110 | COC(=O)CCCc1cc2nc(Cl)ccc2n1S(=O)(=O)c1ccc(N2CCOCC2)cc1
4 | 212 to 213 | COc1cc(-c2ccc(-c3ccc(N=Nc4ccccn4)c(OC)c3)o2)ccc1N=Nc1ccccn1
5 | 119 to 121 | CC(C)(C)OC(=O)Nc1ccc(-c2ccccc2)cc1[N+](=O)[O-]
6 | 165 to 166 | c1ccc(CNc2nnc(-c3ccc(CN4CCCCCC4)s3)s2)cc1
7 | 119 to 123 | O=C(O)c1cc(-c2ccccc2)c2c(n1)OCCN(Cc1cc(C(F)(F)F)cc(C(F)(F)F)c1)C2=O
8 | 81 to 82 | COc1cc(C(=O)CCCc2ccccc2)ccc1OCc1ccccc1
9 | 76 to 81 | Cn1c(CCCOc2ccc(CC3SC(=O)N(C(c4ccccc4)(c4ccccc4)c4ccccc4)C3=O)cc2)nc2cccnc21 (stereo unspecified)
10 | 246 to 248 | CS(=O)(=O)Nc1ccc(N2CCN(c3cnccc3N)CC2)cc1
11 | 148 to 151 | CC(C)Oc1cc(F)c2c(c1)Oc1cc(F)ccc1S2(=O)=O
12 | 260 to 262 | Cc1ccc(C)n1-c1cc2c(cc1C(F)(F)F)[nH]c(=O)c(=O)n2CCC(=O)NCc1ccccc1
13 | 140 to 142 | COc1ccc(OC)c(CC2=C(C)C(=O)C3C=CC=CC3C2=O)c1 (stereo unspecified)
14 | 144 to 147 | CC(=O)OCc1nc(-c2ccc3c(c2)OCO3)c2cc3c(cc2n1)OCO3
15 | 176 to 178 | COc1cc2onc(C3CCN(c4c(C)[nH]c5ccccc45)CC3)c2cc1OC
16 | 146 to 148 | CCC(=O)Nc1ccc(Br)c(-n2nc(CC)n(Cc3ccc(-c4ccccc4S(=O)(=O)NC(=O)OC(C)(C)C)cc3F)c2=O)c1
17 | 166 to 168 | CC(=O)Nc1ccc(-c2cccc(-n3c(-c4cccnc4N)nc4cc(-c5cccc(NC(C)=O)c5)c(-c5cccnc5)nc43)c2)cc1
18 | 190 | COc1ccc(-c2[nH]c(-c3ccc(F)cc3)cc2C(=O)N2CCOCC2)cc1OC

Row | melting point [°C] | Compound
19 | 122 | COc1ccc2oc(Cc3ccccc3OC)c(CC#N)c2c1
20 | 128 | COc1ccc2c(c1)C(=O)c1ccc(Nc3ccc(F)c(F)c3F)cc1CC2
21 | 59 to 60 | CC(C)CN(CC(C)C)c1ccc(C(=O)c2ccccc2)cc1N
22 | 149 to 151 | COCCCn1cc(Br)c2c3c(c(-c4ccccc4Cl)cc21)C(=O)NC3=O
23 | 175 to 178 | OC1(c2cc3ccccc3s2)CCN(CCC2COc3ccccc3O2)CC1 (stereo unspecified)
24 | 214 to 215 | Cc1c(C)c2c(c(C)c1NC(=O)CC(C)(C)C)C(c1ccccc1)C(C)(C)O2 (stereo unspecified)
25 | 135 to 137 | Cc1noc(NS(=O)(=O)c2c(Cc3ccc4c(c3)OCO4)sc3ccccc23)c1C
26 | 109 to 114 | COc1c(/C=C/c2cc(/C=C/c3ccc4cc[nH]c4c3)n[nH]2)cccc1OCc1ccccn1
27 | 206 to 207 | CCC1(CC)c2cc(N)ccc2-c2ccc(-c3nc4ccccc4s3)cc21
28 | 105 | O=C(O)c1nc(-c2ccc(Cl)cc2Cl)c(-c2ccccc2)s1
29 | 92 to 94 | COc1ccc2cc(CBr)ccc2c1Br
30 | 153 to 154 | O=C(c1ccc([N+](=O)[O-])cc1)N1Cc2ccccc2-c2ccccc21
31 | 81 | CC(C)(C)OC(=O)Oc1ccc(C(=O)OCc2ccccc2)cc1
32 | 177 | COc1c(C)cc2c(c1C)Cc1c-2[nH]c2ccccc12
33 | 193 | CCN(CC)C(=O)c1ccc(-c2nc(=O)c3ccccc3s2)nc1
34 | 119 to 120 | CCSc1cc(C)nc(SCC)c1NC(=O)CCCSc1nc2ccccc2s1
35 | 111 to 112 | CNS(=O)(=O)Oc1ccc2c(c1)C(C)(C)C(O)O2 (stereo unspecified)

More lines, now with the values behind:

Row | Compound | melting point [°C]
36 | COC(=O)C(=O)c1ccc(OCCCCCCOc2ccccc2)cc1 | 50 to 52
37 | CCSC1COC(Cn2cncn2)(c2ccc(Cl)cc2Cl)C1 (stereo unspecified) | 64
38 | CCOC(=O)c1c(C)nc2c(cnn2CC)c1O | 118 to 120
39 | CC(C)c1c(C=C(Cl)Cl)c(-c2ccc(F)cc2)c2n1CCCC2 | 118 to 120
40 | CCOC(=O)c1cn(N)c2cc(-n3cccc3)c(F)cc2c1=O | 276 to 279
41 | COc1cc(OCCBr)ccc1C=O | 78 to 79
42 | COc1nnc(-c2ccc3ncn(-c4ccc(OC(F)(F)F)cc4)c3c2)o1 | 150 to 151
43 | CC1(c2c[nH]cn2)CCc2ccccc21 (stereo unspecified) | 164 to 171
44 | CN1CCCC1c1ccc(Nc2cc(Br)cn(C)c2=O)nc1 (stereo unspecified) | 143 to 145
45 | CN(C)Cc1ccc(CSCCNC2=NS(=O)N=C2N)o1 (stereo unspecified) | 139 to 142
46 | C#CCNC(=O)c1ncn2c1CN(C)C(=O)c1ccccc1-2 | 213 to 215
47 | COc1cc2nc(N3CCNCC3)nc(N)c2cc1OC | 224 to 228
48 | N#Cc1ccc(-c2ccc(OCCCCBr)cc2)cc1 | 62.5 to 64
49 | CCOC(=O)c1cn([C@@H](CSc2cccc(Cl)c2Cl)[C@H](C)O)cn1 | 141 to 143
50 | COC(=O)C(Cc1ccc(O)cc1)NC(=O)C(Cc1ccccc1)NC(=O)c1ccccc1 (stereo not drawn) (Bz-Phe-Tyr-OMe; configuration not given here) | 188 to 190
51 | N#Cc1ccc(C#CCCC(=O)O)cc1 | 149 to 152
52 | OCC1OC(n2cnc3c(NCc4cccc(O)c4)ncnc32)C(O)C1O (stereo unspecified) | 196
53 | COc1ccc(C2=NN(c3ccc(OCCCCBr)cc3)C(=O)[C@@H]3CC=CC[C@H]23)cc1OC | 38 to 43
54 | CC(C)CC(Br)C(=O)N1CCC[C@H]1CO (stereo partly specified) | 79 to 82
55 | COC(C)CCC1(O)C2=NCCCN2c2cccc(Cl)c21 (stereo unspecified) | 164 to 165
56 | CCCn1c(COC)nc2c(N)nc3ccc(OCC4CCCN(C)C4)cc3c21 (stereo unspecified) | 194 to 196
57 | COc1ccc(C(=O)CBr)c(F)c1 | 67 to 69

Row | Compound | melting point [°C]
58 | NC(=O)c1sc2nccc(N3CCCN(c4cccc([N+](=O)[O-])c4)CC3)c2c1N | 180 to 185
59 | CC(=O)OC(C(C(=O)C(C)(C)C)n1cncn1)C(Cl)(Cl)Cl (stereo unspecified) | 115 to 119
60 | CC(=O)SC(CC(=O)c1ccc(Oc2cccc(Cl)c2)cc1)C(=O)O (stereo unspecified) | 122 to 125
61 | Cc1c(CO)ncnc1N(C)C | 46 to 48
62 | Cc1ccsc1C(=O)NP(N)(N)=O | 267 to 275
63 | N#Cc1ccccc1OCC(O)CN1CCN(c2ncccc2F)CC1 (stereo unspecified) | 68 to 70
64 | Cc1cc(C)nc(NCC#N)c1 | 92 to 93
65 | COC(=O)CCc1cc2c(s1)NC(=S)C(C)N=C2c1ccccc1Cl (stereo unspecified) | 198 to 200
66 | CC(C)(CCl)C(=O)N(O)Cc1ccccc1Br | 119 to 121
67 | COCc1ccc(C2(O)CCN(CC(O)c3ccc(O)cc3)CC2)cc1 (stereo unspecified) | 170
68 | CCCCCCOc1ccc(C(=O)Nc2ccc(-n3nc(C(F)(F)F)cc3C(F)(F)F)cc2)cc1 | 153 to 155
69 | CC(C)Nc1nc2cc(F)c(F)cc2[nH]1 | 188 to 189
70 | Clc1ccc(C(=Cc2ccccc2Cl)Cn2cncn2)cc1 | 106 to 110
71 | O=C(Nc1ccc(-n2nc(C(F)(F)F)cc2C(F)(F)F)cc1)N1CCOCC1 | 185 to 186
72 | CCc1nc2c(-c3cc4c(cc3C)OCC4)ncnc2n1C(C1CC1)C1CC1 | 147 to 148
73 | O=C(O)c1c(Cl)c(Cl)cc([N+](=O)[O-])c1Cl | 149 to 151
74 | CC(=O)OC(=CC(=O)O)CC(=O)Nc1ccccc1 | 125 to 126
75 | COc1cc(OC)c(F)c(N2Cc3cnc(S(C)=O)nc3N(C3CC3)C2=O)c1F (stereo unspecified) | 198 to 200
76 | CCCCCC(=O)OC1(c2nc(OC)cc(OC)n2)OC(=O)c2c(Cl)ccc(Cl)c21 (stereo unspecified) | 103 to 105
77 | Cc1ccc([C@@H](O)C(F)(F)F)cc1 | 44.2
78 | CC(C)(C)OC(=O)N1CCn2c(Cl)c(-c3ccccc3)c(C(N)=O)c2C1 | 178 to 180
79 | COc1ccc(C2Cc3c(cccc3C(F)(F)F)NC(=O)C2CO)cc1 (stereo unspecified) | 189 to 190

Row | Compound | melting point [°C]
80 | O=C(O)CCCCCNC(=O)OCC1c2ccccc2-c2ccccc21 | 116
81 | C=CCC(C)(C)C(NC(=O)c1ccc(Cl)cc1)NC(=N[N+](=O)[O-])Nc1cccnc1 (stereo unspecified) | 200 to 203
82 | Cc1[nH]c(C)c2c1C(C)(C)CC2(C)C#N (stereo unspecified) | 130 to 140
83 | CC(Oc1ccc(-c2ccc(Cl)cc2)cc1)(C(N)=O)C(F)(F)F (stereo unspecified) | 141 to 142
84 | Nc1ccccc1Oc1ccccc1C(=O)O | 150 to 151
85 | CCOC(=O)Cc1c(C(=O)OCC)sc2c1cc(C(=O)OCC)n2CC(=O)OCC | 190
86 | CC(C)(C)OC(=O)COc1ccc(-c2c(Cl)c(CN3C(=O)CCC3=O)nc3sc4c(c23)CCS(=O)(=O)C4)cc1 | 204 to 205
87 | O=C(O)CCC(=O)c1ccc(O)c(Cl)c1 | 155 to 160
88 | O=C1COCCOCC(=O)NCCOCCOCCOCCN1 | 90 to 91
89 | NC(=O)c1c(C(=O)O)cccc1[N+](=O)[O-] | 188
90 | O=C(NCCCCCCCCc1ccccc1)c1cc(-c2cccc(Cl)c2)c(OCCO)c(-c2cccc(Cl)c2)c1 | 165 to 167
91 | COc1ccc2c(c1)C(=O)C(=O)C=C2 | 78 to 80
92 | CC(=O)C1=CCC2C3CCC4=CC(=O)CCC4(C)C3(F)C(=O)CC12C (stereo unspecified) | 208 to 211
93 | O=c1[nH]c2ccc(Br)cc2c(=O)n1CCCS | 220 to 221
94 | CNc1ccc(C(=O)OC)c(F)n1 | 156 to 159
95 | CC(=O)N(C(C)=O)C(C)=C1CC2C3CC4C2C4C13 (stereo unspecified) | 112 to 128
96 | CC1=C(C(=O)OC(C)(C)C)C(c2ccccc2)C(C(=O)OC(C)(C)C)=C(C)N1 | 187 to 188
97 | CC(C)=CCC/C(C)=C/CSc1nc2ccccc2[nH]1 | 98 to 100
98 | O=C(CCSCCSCCSCCC(=O)Nc1ccc(Nc2ccccc2)cc1)Nc1ccc(Nc2ccccc2)cc1 | 196 to 198
99 | COc1ccc(CC(C)NCC(O)c2cccc(Cl)c2)cc1 (stereo unspecified) | 80 to 87
100 | CC(=O)c1cc(C2CCCCC2)ccc1O | < 50
101 | CCCCCCCCCCCCn1nnc(Nc2ccccc2)n1 | 58 to 61
